Among the data in patent US11596639B2, “Substituted indole Mcl-1 inhibitors” (Vanderbilt University, priority 2016, dated 2023) are Ki and GI50 values, retold here.

The target of one assay is Mcl-1 (Homo sapiens (Human), UniProt Q07820). Nature of the assay: TR-FRET binding assay, FITC-Bak peptide and MBP-tagged Mcl-1. The conditions noted are these: read-out: Ki for Inhibition of Mcl-1 by TR-FRET assay. The procedure:
Compounds are diluted in DMSO in a 16-point, semilog serial dilution scheme. […] The plate was mixed and incubated for 3 hours at room temperature. […] TR-FRET signal is plotted and IC50 and Ki values are calculated in the same manner as the fluorescence polarization anisotropy based competition assays.
For orientation: TR-FRET usually uses a lanthanide donor and a delayed reading to cut background.

Assay [1] has as its system H929 human cancer cell lines. Kind of assay: Cellular viability / proliferation (Cell TiterGlo, 72 h). Format: cell-based. An outline of the steps: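 Top dose 50 μM, serially diluted 2-fold, applied one day after seeding (1,000 cells/well, 10% FBS), DMSO below 1%.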
A general note: ATP-based viability assays read luminescence as a measure of living cells.

Setting [2] is: Homo sapiens, NCI-H929, 72 h, read-out: GI50 on cellular proliferation of H929 human cancer cell lines, H929 cells, 72 h, Cell TiterGlo, 10% FBS.

Read-outs that look alike come from different tables or passages of the source. Where only a bound is given, the exact number is not on record here.

Sequence of Mcl-1 (Q07820 172-327): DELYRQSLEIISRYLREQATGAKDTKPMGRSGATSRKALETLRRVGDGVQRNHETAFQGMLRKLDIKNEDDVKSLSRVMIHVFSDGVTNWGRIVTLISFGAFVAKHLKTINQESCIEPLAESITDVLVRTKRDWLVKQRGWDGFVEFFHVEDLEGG

Turning to `Cc1cc(OCCCc2c3n(c4c(-c5c(C)nn(C)c5C)c(Cl)ccc24)[C@H](C)CN(c2cc(CCN4CCOCC4)cc4cc(C(=O)O)n(C)c24)C3=O)cc(C)c1Cl` [Example 715, (R)-7-(7-chloro-10-(3-(4-chloro-3,5-dimethylphenoxy)propyl)-4-methyl-1-oxo-6-(1,3,5-trimethyl-1H-pyrazol-4-yl)-3,4-dihydropyrazino[1,2-a]indol-2(1H)-yl)-1-methyl-5-(2-morpholinoethyl)-1H-indole-2-carboxylic acid], the inhibition constant (Ki) (as a rule, a measure of affinity in units of concentration, obtained from inhibition or displacement) at Mcl-1 was less than 0.2 nM. Moreover, in assay [1] (setting [2]), the GI50 was less than 200 nM.
Taken in the same sequence, the figures for `Cc1cc(N2C[C@@H](C)n3c(c(CCCOc4cc(C)c(Cl)c(C)c4)c4ccc(Cl)c(-c5c(C)nn(C)c5C)c43)C2=O)c2c(c1)cc(C(=O)O)n2Cc1cc(N2CCN(C)CC2)ccn1` [Example 515, (R)-7-(7-Chloro-10-(3-(4-chloro-3,5-dimethylphenoxy)propyl)-4-methyl-1-oxo-6-(1,3,5-trimethyl-1H-pyrazol-4-yl)-3,4-dihydropyrazino[1,2-a]indol-2(1H)-yl)-5-methyl-1-((4-(4-methylpiperazin-1-yl)pyridin-2-yl)methyl)-1H-indole-2-carboxylic acid] were less than 0.2 nM and 610 nM.
On the same counts, the results for `C=Cc1ccnc(Cn2c(C(=O)O)cc3cc(C)cc(N4C[C@@H](C)n5c(c(CCCOc6cc(C)c(Cl)c(C)c6)c6ccc(Cl)c(-c7c(C)nn(C)c7C)c65)C4=O)c32)c1` [Example 514, (R)-7-(7-chloro-10-(3-(4-chloro-3,5-dimethylphenoxy)propyl)-4-methyl-1-oxo-6-(1,3,5-trimethyl-1H-pyrazol-4-yl)-3,4-dihydropyrazino[1,2-a]indol-2(1H)-yl)-5-methyl-1-((4-vinylpyridin-2-yl)methyl)-1H-indole-2-carboxylic acid] are less than 0.2 nM and less than 200 nM.
On to `Cc1cc(OCCCc2c3n(c4c(-c5c(C)nn(C)c5C)c(Cl)ccc24)[C@H](C)CN(c2cc(N(C)C(=O)[C@H](C)N(C)C)cc4c(C(=O)O)cn(C)c24)C3=O)cc(C)c1Cl` [Example 608, 7-((R)-7-chloro-10-(3-(4-chloro-3,5-dimethylphenoxy)propyl)-4-methyl-1-oxo-6-(1,3,5-trimethyl-1H-pyrazol-4-yl)-3,4-dihydropyrazino[1,2-a]indol-2(1H)-yl)-5-((S)-2-(dimethylamino)-N-methylpropanamido)-1-methyl-1H-indole-3-carboxylic acid], for which, at Mcl-1, the Ki was 0.91 nM. In addition, the GI50 in assay [1] (setting [2]) was 304000 nM.
On the same counts, the results for `Cc1cc(OCCCc2c3n(c4c(-c5c(C)nn(C)c5C)c(Cl)ccc24)[C@H](C)CN(c2cc(CN4CCN(C)C(=O)C4)cc4cc(C(=O)O)n(C)c24)C3=O)cc(C)c1Cl` [Example 628, (R)-7-(7-chloro-10-(3-(4-chloro-3,5-dimethylphenoxy)propyl)-4-methyl-1-oxo-6-(1,3,5-trimethyl-1H-pyrazol-4-yl)-3,4-dihydropyrazino[1,2-a]indol-2(1H)-yl)-1-methyl-5-((4-methyl-3-oxopiperazin-1-yl)methyl)-1H-indole-2-carboxylic acid] are less than 0.2 nM and 440 nM.
Taken in the same sequence, the figures for `Cc1cc(OCCCc2c3n(c4c(-c5c(C)nn(C)c5C)c(Cl)ccc24)[C@H](C)CN(c2cn(C)c4ccc(-n5ccnn5)cc24)C3=O)cc(C)c1Cl` [Example 668, (R)-7-Chloro-10-(3-(4-chloro-3,5-dimethylphenoxy)propyl)-4-methyl-2-(1-methyl-5-(1H-1,2,3-triazol-1-yl)-1H-indol-3-yl)-6-(1,3,5-trimethyl-1H-pyrazol-4-yl)-3,4-dihydropyrazino[1,2-a]indol-1(2H)-one] were 7.6 nM and 1500 nM.
Taken in the same sequence, the figures for `CC(=O)N1CCN(c2ccnc(Cn3c(C(=O)O)cc4cc(C)cc(N5C[C@@H](C)n6c(c(CCCOc7cc(C)c(Cl)c(C)c7)c7ccc(Cl)c(-c8c(C)nn(C)c8C)c76)C5=O)c43)c2)CC1` [Example 552, (R)-1-((4-(4-acetylpiperazin-1-yl)pyridin-2-yl)methyl)-7-(7-chloro-10-(3-(4-chloro-3,5-dimethylphenoxy)propyl)-4-methyl-1-oxo-6-(1,3,5-trimethyl-1H-pyrazol-4-yl)-3,4-dihydropyrazino[1,2-a]indol-2(1H)-yl)-5-methyl-1H-indole-2-carboxylic acid] were less than 0.2 nM and 4600 nM.
`Cc1cc(OCCCc2c3n(c4c(-c5c(C)nn(C)c5C)c(Cl)ccc24)[C@H](C)CN(c2cn(C[C@H]4CCC[N+]4(C)C)c4ccc(C(=O)O)cc24)C3=O)cc(C)c1Cl` [Example 667, (R)-2-((5-carboxy-3-((R)-7-chloro-10-(3-(4-chloro-3,5-dimethylphenoxy)propyl)-4-methyl-1-oxo-6-(1,3,5-trimethyl-1H-pyrazol-4-yl)-3,4-dihydropyrazino[1,2-a]indol-2(1H)-yl)-1H-indol-1-yl)methyl)-1,1-dimethylpyrrolidin-1-ium]: the Ki on Mcl-1 is less than 0.2 nM. Also, the GI50 in assay [1] (H929 cells, 72 h, Cell TiterGlo, 10% FBS, read-out: GI50 on cellular proliferation of H929 human cancer cell lines) stood at 8200 nM.
On to `Cc1cc(OCCCc2c3n(c4c(-c5c(C)nn(C)c5C)c(Cl)ccc24)[C@H](C)CN(c2cc(OCCN(C)C)cc4cc(C(=O)O)n(Cc5ccccn5)c24)C3=O)cc(C)c1Cl` [Example 590, (R)-7-(7-chloro-10-(3-(4-chloro-3,5-dimethylphenoxy)propyl)-4-methyl-1-oxo-6-(1,3,5-trimethyl-1H-pyrazol-4-yl)-3,4-dihydropyrazino[1,2-a]indol-2(1H)-yl)-5-(2-(dimethylamino)ethoxy)-1-(pyridin-2-ylmethyl)-1H-indole-2-carboxylic acid], for which the Ki at Mcl-1 is less than 0.2 nM. Also, the GI50 in assay [1] (setting [2]) worked out at 670 nM.
Taken in the same sequence, the figures for `Cc1cc(OCCCc2c3n(c4c(-c5c(C)nn(C)c5C)c(Cl)ccc24)[C@H](C)CN(c2cn(CCN(C)C)c4ccc(C(=O)O)cc24)C3=O)cc(C)c1Cl` [Example 510, (R)-3-(7-Chloro-10-(3-(4-chloro-3,5-dimethylphenoxy)propyl)-4-methyl-1-oxo-6-(1,3,5-trimethyl-1H-pyrazol-4-yl)-3,4-dihydropyrazino[1,2-a]indol-2(1H)-yl)-1-(2-(dimethylamino)ethyl)-1H-indole-5-carboxylic acid] were less than 0.2 nM and 240 nM.
With `COCCCn1c(C(=O)O)cc2cc(C)cc(N3C[C@@H](C)n4c(c(CCCOc5cc(C)c(Cl)c(C)c5)c5ccc(Cl)c(-c6c(C)nn(C)c6C)c54)C3=O)c21` [Example 686, (R)-7-(7-chloro-10-(3-(4-chloro-3,5-dimethylphenoxy)propyl)-4-methyl-1-oxo-6-(1,3,5-trimethyl-1H-pyrazol-4-yl)-3,4-dihydropyrazino[1,2-a]indol-2(1H)-yl)-1-(3-methoxypropyl)-5-methyl-1H-indole-2-carboxylic acid], the Ki at Mcl-1 was less than 0.2 nM. The GI50 in assay [1] (setting [2]) is 520 nM.
`COc1ccc(N2C[C@@H](C)n3c(c(CCCOc4cc(C)c(Cl)c(C)c4)c4ccc(Cl)c(-c5c(C)nn(C)c5C)c43)C2=O)c2c1cc(C(=O)O)n2Cc1cccc(C)n1` [Example 593, (R)-7-(7-chloro-10-(3-(4-chloro-3,5-dimethylphenoxy)propyl)-4-methyl-1-oxo-6-(1,3,5-trimethyl-1H-pyrazol-4-yl)-3,4-dihydropyrazino[1,2-a]indol-2(1H)-yl)-4-methoxy-1-((6-methylpyridin-2-yl)methyl)-1H-indole-2-carboxylic acid]: the inhibition constant (Ki) at Mcl-1 is less than 0.2 nM. In assay [1] (setting [2]), the GI50 is less than 200 nM.
On the same counts, the results for `COC1CCN(Cc2cc(N3C[C@@H](C)n4c(c(CCCOc5cc(C)c(Cl)c(C)c5)c5ccc(Cl)c(-c6c(C)nn(C)c6C)c54)C3=O)c3c(c2)cc(C(=O)O)n3C)CC1` [Example 649, (R)-7-(7-chloro-10-(3-(4-chloro-3,5-dimethylphenoxy)propyl)-4-methyl-1-oxo-6-(1,3,5-trimethyl-1H-pyrazol-4-yl)-3,4-dihydropyrazino[1,2-a]indol-2(1H)-yl)-5-((4-methoxypiperidin-1-yl)methyl)-1-methyl-1H-indole-2-carboxylic acid] are less than 0.2 nM and less than 200 nM.
Taken in the same sequence, the figures for `COCCOc1cc(N2C[C@@H](C)n3c(c(CCCOc4cc(C)c(Cl)c(C)c4)c4ccc(Cl)c(-c5c(C)nn(C)c5C)c43)C2=O)c2c(c1)c(C(=O)O)cn2Cc1cc(C)cc(C)n1` [Example 652, (R)-7-(7-chloro-10-(3-(4-chloro-3,5-dimethylphenoxy)propyl)-4-methyl-1-oxo-6-(1,3,5-trimethyl-1H-pyrazol-4-yl)-3,4-dihydropyrazino[1,2-a]indol-2(1H)-yl)-1-((4,6-dimethylpyridin-2-yl)methyl)-5-(2-methoxyethoxy)-1H-indole-3-carboxylic acid] were 0.28 nM and 370 nM.
Taken in the same sequence, the figures for `Cc1ccc(Cn2cc(C(=O)O)c3cccc(N4C[C@@H](C)n5c(c(CCCOc6cc(C)c(Cl)c(C)c6)c6ccc(Cl)c(-c7c(C)nn(C)c7C)c65)C4=O)c32)nc1` (single isomer, unassigned) [Example 501] were 0.68 nM and 1200 nM.
With `Cc1cc(N2C[C@@H](C)n3c(c(CCCOc4cc(C)c(Cl)c(C)c4)c4ccc(Cl)c(-c5c(C)nn(C)c5C)c43)C2=O)c2c(c1)cc(C(=O)O)n2CCO` [Example 657, (R)-7-(7-chloro-10-(3-(4-chloro-3,5-dimethylphenoxy)propyl)-4-methyl-1-oxo-6-(1,3,5-trimethyl-1H-pyrazol-4-yl)-3,4-dihydropyrazino[1,2-a]indol-2(1H)-yl)-1-(2-hydroxyethyl)-5-methyl-1H-indole-2-carboxylic acid], the Ki at Mcl-1 was less than 0.2 nM. The GI50 in assay [1] (setting [2]) stood at 610 nM.
